These are literature values, as cited in patent publication US20150290272A1, “PHARMACEUTICAL COMPOSITION FOR PREVENTING/TREATING BRAIN INJURY AND ENHANCING RECOVERY OF SEQUELAE AND MANUFACTURE THEREOF” (PhytoHealth Corporation, priority 2014, published 2015).

This data set concerns acute ischemic stroke.

For the substance “rtPA: thrombolysis agent recombinant tissue plasminogen activator (rt-PA) (Actilyse) for acute ischemic stroke”, the “increase in the number of people living without disability” value (at three to six months, 2014 review) is 5%. Further, the “overall benefit with respect to living without disability” value (given within three hours of symptom onset) was 10%. For the same substance, the “increased risk of death” value (in the short term, 2014 review) is recorded as 2%. Further, where the note is “in vivo”, the “people with large strokes who developed substantial brain hemorrhage as a complication” value is on record as 6.4%.
